{
  "source": "patent US20230167073A1",
  "about": "(Teijin Pharma Limited, priority 2020, published 2023)",
  "data": [
    {"target": "T1, Human TRPC6 (Homo sapiens, UniProt Q9Y210)", "T1 construct": "expressed in transfected cells", "T1 sequence (Q9Y210 1-931)": "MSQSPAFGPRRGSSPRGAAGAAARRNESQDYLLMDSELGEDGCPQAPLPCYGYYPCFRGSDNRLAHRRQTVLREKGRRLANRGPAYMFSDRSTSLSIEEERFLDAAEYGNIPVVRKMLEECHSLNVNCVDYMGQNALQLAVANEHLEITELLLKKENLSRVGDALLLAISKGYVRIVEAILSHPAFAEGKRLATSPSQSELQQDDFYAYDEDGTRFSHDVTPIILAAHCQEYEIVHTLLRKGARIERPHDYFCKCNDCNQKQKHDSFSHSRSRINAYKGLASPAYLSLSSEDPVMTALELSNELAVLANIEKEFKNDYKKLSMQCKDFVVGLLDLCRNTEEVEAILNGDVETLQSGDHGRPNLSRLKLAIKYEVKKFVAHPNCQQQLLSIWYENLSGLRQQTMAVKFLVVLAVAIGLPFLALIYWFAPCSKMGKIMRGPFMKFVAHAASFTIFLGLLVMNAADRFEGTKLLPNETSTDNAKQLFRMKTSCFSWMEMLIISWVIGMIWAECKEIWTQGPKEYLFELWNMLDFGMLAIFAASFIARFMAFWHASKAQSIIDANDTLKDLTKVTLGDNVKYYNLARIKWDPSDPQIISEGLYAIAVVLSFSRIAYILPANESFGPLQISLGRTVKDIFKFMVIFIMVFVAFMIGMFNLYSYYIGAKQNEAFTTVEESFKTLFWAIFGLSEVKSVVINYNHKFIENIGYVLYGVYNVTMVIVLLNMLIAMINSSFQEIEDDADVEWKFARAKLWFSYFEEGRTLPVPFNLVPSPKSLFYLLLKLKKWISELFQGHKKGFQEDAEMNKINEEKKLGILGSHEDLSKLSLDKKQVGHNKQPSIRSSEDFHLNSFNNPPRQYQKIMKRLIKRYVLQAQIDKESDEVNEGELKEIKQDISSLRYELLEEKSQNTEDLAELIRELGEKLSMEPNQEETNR", "test": "Evaluation of TRPC6 channel inhibitory activity (1), FLIPR Calcium 5 Assay Kit, OAG stimulation (Compound Nos. 1-1293)", "type": "cell-based", "settings": "Human TRPC6 stably-expressing cells, OAG 30 μM, FLIPR Calcium 5 Assay Kit; read-out: Inhibitory activity (pIC50 class) (converted)", "procedure,_shortened": "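The FLIPR signal is maximum fluorescence after 30 μM OAG minus minimum before compound, measured in a human TRPC6 stable line loaded with Calcium 5 dye. Compounds were preincubated 20 min. pIC50 came from four-parameter logistic fitting of inhibition rates and is given as symbol ranges.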", "units": {"IC50": "nM"}, "values": [
      {"molecule": "Cc1c(C(=O)c2cc(C#N)ccc2-c2ncc(CN)cn2)cnn1CC1CC1", "note": "[compound 1036, 4-[5-(aminomethyl)pyrimidin-2-yl]-3-[1-(cyclopropylmethyl)-5-methylpyrazole-4-carbonyl]benzonitrile]", "IC50": "> 1000"},
      {"molecule": "N#Cc1ccc(-c2ncc(CCN)cn2)c(C(=O)c2cnn(-c3ccccn3)c2)c1", "note": "[compound 1037, 4-[5-(2-aminoethyl)pyrimidin-2-yl]-3-(1-pyridin-2-ylpyrazole-4-carbonyl)benzonitrile]", "IC50": "< 10"},
      {"molecule": "N#Cc1ccc(-c2ncc(CN)cn2)c(C(=O)c2cnn(-c3ccccn3)c2)c1", "note": "[compound 1038, 4-[5-(aminomethyl)pyrimidin-2-yl]-3-(1-pyridin-2-ylpyrazole-4-carbonyl)benzonitrile]", "IC50": "10 to 1000"},
      {"molecule": "N#Cc1ccc(-c2ncc(CCN)cn2)c(C(=O)c2cnc(C(F)(F)F)s2)c1", "note": "[compound 1039, 4-[5-(2-aminoethyl)pyrimidin-2-yl]-3-[2-(trifluoromethyl)-1,3-thiazole-5-carbonyl]benzonitrile]", "IC50": "10 to 1000"},
      {"molecule": "Cc1nc(C(=O)c2cc(C#N)ccc2-c2ncc(CCN)cn2)cc(N2CCOCC2)n1", "note": "[compound 1040, 4-[5-(2-aminoethyl)pyrimidin-2-yl]-3-(2-methyl-6-morpholin-4-ylpyrimidine-4-carbonyl)benzonitrile]", "IC50": "10 to 1000"},
      {"molecule": "N#Cc1ccc(-c2ncc(CCN)cn2)c(C(=O)c2cnn(C3CCOCC3)c2)c1", "note": "[compound 1041, 4-[5-(2-aminoethyl)pyrimidin-2-yl]-3-[1-(oxan-4-yl)pyrazole-4-carbonyl]benzonitrile]", "IC50": "10 to 1000"},
      {"molecule": "CN(C)c1cc(C(=O)c2cc(C#N)ccc2-c2ncc(CCN)cn2)n(C)n1", "note": "[compound 1043, 4-[5-(2-aminoethyl)pyrimidin-2-yl]-3-[5-(dimethylamino)-2-methylpyrazole-3-carbonyl]benzonitrile]", "IC50": "< 10"},
      {"molecule": "CC(C)n1cc(C(=O)c2cc(C#N)ccc2-c2ncc(CCN)cn2)cn1", "note": "[compound 1044, 4-[5-(2-aminoethyl)pyrimidin-2-yl]-3-(1-propan-2-ylpyrazole-4-carbonyl)benzonitrile]", "IC50": "< 10"},
      {"molecule": "CC(C)n1cc(C(=O)c2cc(C#N)ccc2-c2ncc(CN)cn2)cn1", "note": "[compound 1045, 4-[5-(aminomethyl)pyrimidin-2-yl]-3-(1-propan-2-ylpyrazole-4-carbonyl)benzonitrile]", "IC50": "< 10"},
      {"molecule": "N#Cc1ccc(-c2ncc(CCN)cn2)c(C(=O)c2cnn(CC3CC3)c2)c1", "note": "[compound 1046, 4-[5-(2-aminoethyl)pyrimidin-2-yl]-3-[1-(cyclopropylmethyl)pyrazole-4-carbonyl]benzonitrile]", "IC50": "< 10"},
      {"molecule": "N#Cc1ccc(-c2ncc(CN)cn2)c(C(=O)c2cnn(CC3CC3)c2)c1", "note": "[compound 1047, 4-[5-(aminomethyl)pyrimidin-2-yl]-3-[1-(cyclopropylmethyl)pyrazole-4-carbonyl]benzonitrile]", "IC50": "< 10"},
      {"molecule": "N#Cc1ccc(-c2ncc(CCN)cn2)c(C(=O)c2cnn(-c3nccs3)c2)c1", "note": "[compound 1048, 4-[5-(2-aminoethyl)pyrimidin-2-yl]-3-[1-(1,3-thiazol-2-yl)pyrazole-4-carbonyl]benzonitrile]", "IC50": "< 10"},
      {"molecule": "Cc1cc(C(=O)c2cc(C#N)ccc2-c2ncc(CN)cn2)cc(N2CCOCC2)n1", "note": "[compound 1049, 4-[5-(aminomethyl)pyrimidin-2-yl]-3-(2-methyl-6-morpholin-4-ylpyridine-4-carbonyl)benzonitrile]", "IC50": "< 10"},
      {"molecule": "N#Cc1ccc(-c2ncc(CN)cn2)c(C(=O)c2cnn(-c3nccs3)c2)c1", "note": "[compound 1050, 4-[5-(aminomethyl)pyrimidin-2-yl]-3-[1-(1,3-thiazol-2-yl)pyrazole-4-carbonyl]benzonitrile]", "IC50": "10 to 1000"},
      {"molecule": "CN(C)c1cc(C(=O)c2cc(C#N)ccc2-c2ncc(CN)cn2)n(C)n1", "note": "[compound 1051, 4-[5-(aminomethyl)pyrimidin-2-yl]-3-[5-(dimethylamino)-2-methylpyrazole-3-carbonyl]benzonitrile]", "IC50": "< 10"},
      {"molecule": "N#Cc1ccc(-c2ncc(CCN)cn2)c(C(=O)c2cnn(-c3ncccn3)c2)c1", "note": "[compound 1052, 4-[5-(2-aminoethyl)pyrimidin-2-yl]-3-(1-pyrimidin-2-ylpyrazole-4-carbonyl)benzonitrile]", "IC50": "10 to 1000"},
      {"molecule": "Cc1nc(C(=O)c2cc(C#N)ccc2-c2ncc(CN)cn2)cc(N2CCOCC2)n1", "note": "[compound 1053, 4-[5-(aminomethyl)pyrimidin-2-yl]-3-(2-methyl-6-morpholin-4-ylpyrimidine-4-carbonyl)benzonitrile]", "IC50": "> 1000"},
      {"molecule": "Cc1nn(C(C)C)cc1C(=O)c1cc(C#N)ccc1-c1ncc(CN)cn1", "note": "[compound 1054, 4-[5-(aminomethyl)pyrimidin-2-yl]-3-(3-methyl-1-propan-2-ylpyrazole-4-carbonyl)benzonitrile]", "IC50": "< 10"},
      {"molecule": "N#Cc1ccc(-c2ncc(CN)cn2)c(C(=O)c2cnn(-c3ccncn3)c2)c1", "note": "[compound 1055, 4-[5-(aminomethyl)pyrimidin-2-yl]-3-(1-pyrimidin-4-ylpyrazole-4-carbonyl)benzonitrile]", "IC50": "> 1000"},
      {"molecule": "N#Cc1ccc(-c2ncc(CN)cn2)c(C(=O)c2cnn(C3CCOCC3)c2)c1", "note": "[compound 1056, 4-[5-(aminomethyl)pyrimidin-2-yl]-3-[1-(oxan-4-yl)pyrazole-4-carbonyl]benzonitrile]", "IC50": "10 to 1000"},
      {"molecule": "N#Cc1ccc(-c2ncc(CCN)cn2)c(C(=O)c2cnn(C3CCC3)c2)c1", "note": "[compound 1057, 4-[5-(2-aminoethyl)pyrimidin-2-yl]-3-(1-cyclobutylpyrazole-4-carbonyl)benzonitrile]", "IC50": "< 10"},
      {"molecule": "N#Cc1ccc(-c2ncc(CN)cn2)c(C(=O)c2cnn(C3CCC3)c2)c1", "note": "[compound 1058, 4-[5-(aminomethyl)pyrimidin-2-yl]-3-(1-cyclobutylpyrazole-4-carbonyl)benzonitrile]", "IC50": "< 10"},
      {"molecule": "Cc1nc(N2CCOCC2)sc1C(=O)c1cc(C#N)ccc1-c1ccc(CCN)cc1", "note": "[compound 1059, 4-[4-(2-aminoethyl)phenyl]-3-(4-methyl-2-morpholin-4-yl-1,3-thiazole-5-carbonyl)benzonitrile]", "IC50": "< 10"},
      {"molecule": "CC(C)Cn1cc(C(=O)c2cc(C#N)ccc2-c2ncc(CCN)cn2)cn1", "note": "[compound 1060, 4-[5-(2-aminoethyl)pyrimidin-2-yl]-3-[1-(2-methylpropyl)pyrazole-4-carbonyl]benzonitrile]", "IC50": "< 10"},
      {"molecule": "CCN(CC)c1cc(C(=O)c2cc(C#N)ccc2-c2ncc(CN)cn2)n(C)n1", "note": "[compound 1061, 4-[5-(aminomethyl)pyrimidin-2-yl]-3-[5-(diethylamino)-2-methylpyrazole-3-carbonyl]benzonitrile]", "IC50": "< 10"},
      {"molecule": "Cn1nc(N2CCCCC2)cc1C(=O)c1cc(C#N)ccc1-c1ncc(CCN)cn1", "note": "[compound 1062, 4-[5-(2-aminoethyl)pyrimidin-2-yl]-3-(2-methyl-5-piperidin-1-ylpyrazole-3-carbonyl)benzonitrile]", "IC50": "< 10"},
      {"molecule": "Cn1nc(N2CCCCC2)cc1C(=O)c1cc(C#N)ccc1-c1ncc(CN)cn1", "note": "[compound 1063, 4-[5-(aminomethyl)pyrimidin-2-yl]-3-(2-methyl-5-piperidin-1-ylpyrazole-3-carbonyl)benzonitrile]", "IC50": "< 10"},
      {"molecule": "Cc1nc(N2CCOCC2)sc1C(=O)c1cc(C#N)ccc1-c1ncc(CCN)cn1", "note": "[compound 1065, 4-[5-(2-aminoethyl)pyrimidin-2-yl]-3-(4-methyl-2-morpholin-4-yl-1,3-thiazole-5-carbonyl)benzonitrile]", "IC50": "< 10"},
      {"molecule": "Cc1nc(N2CCOCC2)sc1C(=O)c1cc(C#N)ccc1-c1ccc(CN)cn1", "note": "[compound 1066, 4-[5-(aminomethyl)pyridin-2-yl]-3-(4-methyl-2-morpholin-4-yl-1,3-thiazole-5-carbonyl)benzonitrile]", "IC50": "< 10"},
      {"molecule": "Cc1sc(N2CCOCC2)nc1C(=O)c1cc(C#N)ccc1-c1ccc(CN)cn1", "note": "[compound 1067, 4-[5-(aminomethyl)pyridin-2-yl]-3-(5-methyl-2-morpholin-4-yl-1,3-thiazole-4-carbonyl)benzonitrile]", "IC50": "> 1000"},
      {"molecule": "Cc1sc(N2CCOCC2)nc1C(=O)c1cc(C#N)ccc1-c1ccc(CCN)cn1", "note": "[compound 1068, 4-[5-(2-aminoethyl)pyridin-2-yl]-3-(5-methyl-2-morpholin-4-yl-1,3-thiazole-4-carbonyl)benzonitrile]", "IC50": "10 to 1000"},
      {"molecule": "Cc1sc(N2CCOCC2)nc1C(=O)c1cc(C#N)ccc1-c1ncc(CN)cn1", "note": "[compound 1069, 4-[5-(aminomethyl)pyrimidin-2-yl]-3-(5-methyl-2-morpholin-4-yl-1,3-thiazole-4-carbonyl)benzonitrile]", "IC50": "> 1000"}
    ]}
  ]
}
